Data taken from patent US20220313698A1, “MODULATORS OF CYSTIC FIBROSIS TRANSMEMBRANE CONDUCTANCE REGULATOR” (Vertex Pharmaceuticals Incorporated, priority 2019, published 2022).

Target: CFTR-mediated chloride transport (Homo sapiens, UniProt P13569)
Assay: Corrector Assay A - membrane potential dye assay (enteroid cells)
Settings: for Corrector Assay A % activity: % of chloride transport of triple combination control (1 μM (14S)-dispiro macrocycle + 3 μM tezacaftor + 300 nM ivacaftor); for EC50: read-out: Corrector Assay A EC50, human intestinal enteroid cells, 18-24 h incubation, acute 10 μM forskolin + 300 nM ivacaftor
Description: Base medium (ADF+++) consisted of Advanced DMEM/Ham's F12, 2 mM Glutamax, 10 mM HEPES, 1 μg/ml penicillin/streptomycin.
Intestinal enteroid maintenance medium (IEMM) consisted of ADF+++, 1×B27 supplement, 1×N2 supplement, 1.25 mM N-acetyl cysteine, 10 mM Nicotinamide, 50 ng/mL hEGF, 10 nM Gastrin, 1 μg/mL hR-spondin-1, 100 ng/mL hNoggin, TGF-b type 1 inhibitor A-83-01, 100 μg/mL Primocin, 10 μM P38 MAPK inhibitor SB202190.
Bath 1 Buffer consisted of 1 mM MgCl2, 160 mM NaCl, 4.5 mM KCl, 10 mM HEPES, 10 mM Glucose, 2 mM CaCl2).
Chloride Free Buffer consisted of 1 mM Magnesium Gluconate, 2 mM Calcium Gluconate, 4.5 mM Potassium Gluconate, 160 mM Sodium Gluconate, 10 mM HEPES, 10 mM Glucose.
Bath 1 Dye Solution consisted of Bath 1 Buffer, 0.04% Pluronic F127, 20 μM Methyl Oxonol, 30 μM CaCCinh-A01, 30 μM Chicago Sky Blue.
Chloride Free Dye Solution consisted of Chloride Free Buffer, 0.04% Pluronic F127, 20 μM Methyl Oxonol, 30 μM CaCCinh-A01, 30 μM Chicago Sky Blue.
Chloride Free Dye Stimulation Solution consisted of Chloride Free Dye Solution, 10 μM forskolin, 100 μM IBMX, and 300 nM Ivacaftor.
Cells were recovered in cell recovery solution, collected by centrifugation at 650 rpm for 5 min at 4° C., resuspended in TryPLE and incubated for 5 min at 37° C. Cells were then collected by centrifugation at 650 rpm for 5 min at 4° C. and resuspended in IEMM containing 10 μM ROCK inhibitor (RI). The cell suspension was passed through a 40 μm cell strainer and resuspended at 1×10^6 cells/mL in IEMM containing 10 μM RI. Cells were seeded at 5000 cells/well into multi-well plates and incubated for overnight at 37° C., 95% humidity and 5% CO2 prior to assay.
Briefly, cells were washed 5 times in Bath 1 Buffer. Bath 1 Dye Solution was added and the cells were incubated for 25 min at room temperature. Following dye incubation, cells were washed 3 times in Chloride Free Dye Solution. Chloride transport was initiated by addition of Chloride Free Dye Stimulation Solution and the fluorescence signal was read for 15 min. The CFTR-mediated chloride transport for each condition was determined from the AUC of the fluorescence response to acute forskolin and 300 nM N-[2,4-bis(1,1-dimethylethyl)-5-hydroxyphenyl]-1,4-dihydro-4-oxoquinoline-3-carboxamide stimulation. Chloride transport was then expressed as a percentage of the chloride transport following treatment with 1 μM (14S)-8-[3-(2-{Dispiro[2.0.2.1]heptan-7-yl}ethoxy)-1H-pyrazol-1-yl]-12,12-dimethyl-2λ^6-thia-3,9,11,18,23-pentaazatetracyclo[17.3.1.111,14.05,10]tetracosa-1(22),5,7,9,19(23),20-hexaene-2,2,4-trione, 3 μM (R)-1-(2,2-difluorobenzo[d][1,3]dioxol-5-yl)-N-(1-(2,3-dihydroxypropyl)-6-fluoro-2-(1-hydroxy-2-methylpropan-2-yl)-1H-indol-5-yl)cyclopropanecarboxamide and 300 nM acute N-[2,4-bis(1,1-dimethylethyl)-5-hydroxyphenyl]-1,4-dihydro-4-oxoquinoline-3-carboxamide triple combination control (% Activity).

SMILES	Corrector Assay A % activity	EC50 [nM]
CN1CCC(C2CC[C@@H]3CN(c4nc(C(C)(C)C)ccc4C(=O)NS(=O)(=O)c4cccc(n4)N2)C(C)(C)C3)CC1 (single isomer, unassigned) [Compound 240]	+++ (+++ is >60%)	1000 to 3000
Cc1cccc(C)c1[C@H]1CC[C@@H]2CN(c3nc(C(C)(C)C)ccc3C(=O)NS(=O)(=O)c3cccc(n3)N1)C(C)(C)C2 (single isomer, unassigned) [Compound 242]	+ (+ is <30%)	
Cc1cccc(C)c1[C@@H]1CC[C@@H]2CN(c3nc(C(C)(C)C)ccc3C(=O)NS(=O)(=O)c3cccc(n3)N1)C(C)(C)C2 (single isomer, unassigned) [Compound 243]	+++ (+++ is >60%)	< 1000
CC(C)(C)c1ccc2c(n1)N1C[C@@H](CCC(C(C)(C)C)Nc3cccc(n3)S(=O)(=O)NC2=O)CC1(C)C (single isomer, unassigned) [Compound 245]	++ (++ is 30-60%)	< 1000
CC(C)(C)c1ccc2c(n1)N1C[C@@H](CCC(C3CCNCC3)Nc3cccc(n3)S(=O)(=O)NC2=O)CC1(C)C (single isomer, unassigned) [Compound 248]	++ (++ is 30-60%)	> 3000
CC(C)(C)c1ccc2c(n1)N1C[C@@H](CCC(C3CCNCC3)Nc3cccc(n3)S(=O)(=O)NC2=O)CC1(C)C (single isomer, unassigned) [Compound 249]	++ (++ is 30-60%)	> 3000
CC(C)(C)c1ccc2c(n1)N1CC(CCCNc3cncc(n3)S(=O)(=O)NC2=O)CC1(C)C (single isomer, unassigned) [Compound 252, 8-tert-butyl-12,12-dimethyl-2λ^6-thia-3,9,11,18,21,23-hexaazatetracyclo[17.3.1.111,14.05,10]tetracosa-1(22),5,7,9,19(23),20-hexaene-2,2,4-trione]	++ (++ is 30-60%)	< 1000
CC(C)(C)c1ccc2c(n1)N1CC(CCCNc3cncc(n3)S(=O)(=O)NC2=O)CC1(C)C (single isomer, unassigned) [Compound 253, 8-tert-Butyl-12,12-dimethyl-2λ^6-thia-3,9,11,18,21,23-hexaazatetracyclo[17.3.1.111,14.05,10]tetracosa-1(22),5,7,9,19(23),20-hexaene-2,2,4-trione]	+ (+ is <30%)	> 3000

The remaining lines, values ahead:

Corrector Assay A % activity	EC50 [nM]	SMILES
++ (++ is 30-60%)	< 1000	CN1CCC(C2CC[C@@H]3CN(c4nc(C(C)(C)C)ccc4C(=O)NS(=O)(=O)c4cccc(n4)N2)C(C)(C)C3)CC1 (single isomer, unassigned) [Compound 241]
+++ (+++ is >60%)	< 1000	CC(C)(C)c1ccc2c(n1)N1C[C@@H](CCC(C(C)(C)C)Nc3cccc(n3)S(=O)(=O)NC2=O)CC1(C)C (single isomer, unassigned) [Compound 244]
++ (++ is 30-60%)	< 1000	CC(C)(C)c1ccc2c(n1)N1CC(CCCNc3cc(O)cc(n3)S(=O)(=O)NC2=O)CC1(C)C (single isomer, unassigned) [Compound 250, 8-tert-butyl-21-hydroxy-12,12-dimethyl-2λ^6-thia-3,9,11,18,23-pentaazatetracyclo[17.3.1.111,14.05,10]tetracosa-1(23),5,7,9,19,21-hexaene-2,2,4-trione]
+ (+ is <30%)		CC(C)(C)c1ccc2c(n1)N1CC(CCCNc3cc(O)cc(n3)S(=O)(=O)NC2=O)CC1(C)C (single isomer, unassigned) [Compound 251, 8-tert-butyl-21-hydroxy-12,12-dimethyl-2λ^6-thia-3,9,11,18,23-pentaazatetracyclo[17.3.1.111,14.05,10]tetracosa-1(23),5,7,9,19,21-hexaene-2,2,4-trione]
+ (+ is <30%)	< 1000	CC(C)(C)c1ccc2c(n1)N1C[C@@H](CCC(C3CCN(C(=O)OCc4ccccc4)CC3)Nc3cccc(n3)S(=O)(=O)NC2=O)CC1(C)C (single isomer, unassigned) [Compound 254]
